6 compounds from ChEMBL document CHEMBL3797048, “Structure-activity relationship studies of new rifamycins containing l-amino acid esters as inhibitors of bacterial RNA polymerases” (Eur J Med Chem, 2016) can be followed below.

Converted amounts (≈) assume the structure as drawn. Where only a bound is given, the exact number is not on record here.

Data set [1] has as its system Staphylococcus aureus. The experiment in a line: Antibacterial activity against methicillin resistant Staphylococcus aureus isolate 5 after 18 hrs by microdilution method. Type of data set: functional. The settings on record: isolate 5, 18 h. A general note: Broth dilution looks for growth in wells or tubes with falling amounts of substance.
The subject of data set [2] is Staphylococcus aureus. The experiment in a line: Antibacterial activity against Staphylococcus aureus ATCC 25923 after 18 hrs by microdilution method. The data set is classed as functional. The settings on record: ATCC 25923, 18 h.
Data set [3] has as its system Escherichia coli. The data set can be described thus: Antibacterial activity against Escherichia coli ATCC 25922 after 18 hrs by microdilution method. Type of data set: functional. The conditions noted are these: ATCC 25922, 18 h.
For data set [4], the system named is Staphylococcus aureus. The data set can be described thus: Antibacterial activity against methicillin resistant Staphylococcus aureus isolate 1 after 18 hrs by microdilution method. The data set is classed as functional. The conditions noted are these: isolate 1, 18 h.
The subject of data set [5] is Staphylococcus epidermidis. The experiment in a line: Antibacterial activity against Staphylococcus epidermidis ATCC 12228 after 18 hrs by microdilution method. The settings on record: ATCC 12228, 18 h. Type of data set: functional.
Data set [6] concerns Staphylococcus aureus. The experiment in a line: Antibacterial activity against methicillin resistant Staphylococcus aureus isolate 3 after 18 hrs by microdilution method. Type of data set: functional. The conditions noted are these: isolate 3, 18 h.
The subject of data set [7] is Staphylococcus aureus. The data set can be described thus: Antibacterial activity against Staphylococcus aureus ATCC 6538 after 18 hrs by microdilution method. The settings on record: ATCC 6538, 18 h. The data set is classed as functional.
For data set [8], the system named is Pseudomonas aeruginosa. The data set can be described thus: Antibacterial activity against Pseudomonas aeruginosa NCTC 6749 after 18 hrs by microdilution method. The data set is classed as functional. The conditions noted are these: NCTC 6749, 18 h.
Data set [9] concerns Staphylococcus aureus. The experiment in a line: Antibacterial activity against Staphylococcus aureus ATCC 4163 after 18 hrs by microdilution method. The data set is classed as functional. The conditions noted are these: ATCC 4163, 18 h.
For data set [10], the system named is Staphylococcus epidermidis. The data set can be described thus: Antibacterial activity against Staphylococcus epidermidis ATCC 49134 after 18 hrs by microdilution method. Type of data set: functional. The conditions noted are these: ATCC 49134, 18 h.
The test system of data set [11] is Staphylococcus aureus. The data set can be described thus: Antibacterial activity against methicillin resistant Staphylococcus aureus isolate 4 after 18 hrs by microdilution method. The data set is classed as functional. The conditions noted are these: isolate 4, 18 h.
The test system of data set [12] is Staphylococcus aureus. The data set can be described thus: Antibacterial activity against methicillin resistant Staphylococcus aureus isolate 2 after 18 hrs by microdilution method. The settings on record: isolate 2, 18 h. Type of data set: functional.
A short description of data set [13]: Solubility in water at pH 7 by UV-vis spectrophotometric analysis. The data set is classed as physicochemical.
The nature of data set [14]: Octanol-water partition coefficient, logP of the compound after 1 hr by UV-vis spectrophotometric analysis. Type of data set: physicochemical.

Usually MIC stands for the lowest concentration that inhibits growth of the organism. Low readings indicate inhibition by little substance, high ones a need for much substance. Regarding `CO[C@H]1/C=C/O[C@@]2(C)Oc3c(C)c(O)c4c(O)c(c(C=O)c(O)c4c3C2=O)NC(=O)/C(C)=C\C=C\[C@H](C)[C@H](O)[C@@H](C)[C@@H](O)[C@@H](C)[C@H](OC(C)=O)[C@@H]1C`, the minimum inhibitory concentration (MIC) was more than 2 µg/mL in data set [1]; more than 2 µg/mL in [2]; more than 2 µg/mL in [3]; more than 2 µg/mL in [4]; 1 µg/mL (≈ 1.38 µM) in data set [5]; more than 2 µg/mL in data set [6]. The MIC in [7] was more than 2 µg/mL; in data set [8], more than 2 µg/mL; in [9], 2 µg/mL (≈ 2.76 µM); in data set [10], 1 µg/mL (≈ 1.38 µM); in data set [11], more than 2 µg/mL; in data set [12], more than 2 µg/mL.

The solubility is the concentration that dissolves in the medium under given conditions. What is called logP is a log measure of how a compound divides between an organic and an aqueous phase. On to `CO[C@H]1/C=C/O[C@@]2(C)Oc3c(C)c(O)c4c(O)c(c(CN[C@@H](Cc5ccccc5)C(=O)OC(C)(C)C)c(O)c4c3C2=O)NC(=O)/C(C)=C\C=C\[C@H](C)[C@H](O)[C@@H](C)[C@@H](O)[C@@H](C)[C@H](OC(C)=O)[C@@H]1C`, for which the MIC in [1] is 0.5 µg/mL (≈ 0.537 µM); in data set [2], 1 µg/mL (≈ 1.07 µM); in data set [3], more than 2 µg/mL; in data set [4], 0.5 µg/mL (≈ 0.537 µM); in data set [5] it was 0.125 µg/mL (≈ 0.134 µM); in data set [7] it was 0.5 µg/mL (≈ 0.537 µM). Moreover, the MIC was more than 2 µg/mL in data set [8], 0.5 µg/mL (≈ 0.537 µM) in [9], 0.25 µg/mL (≈ 0.269 µM) in data set [10] and 0.5 µg/mL (≈ 0.537 µM) in [11]. Also, in data set [13], the solubility is 30 µg/mL (≈ 32.2 µM). In addition, in data set [14], the logP at 1 h worked out at 2.66.

Regarding `CCOC(=O)[C@H](CCCCN)NCc1c2c(O)c3c(O)c(C)c4c(c3c1O)C(=O)[C@@](C)(O/C=C/[C@H](OC)[C@@H](C)[C@@H](OC(C)=O)[C@H](C)[C@H](O)[C@H](C)[C@@H](O)[C@@H](C)/C=C/C=C(/C)C(=O)N2)O4`, in data set [13], the solubility came to 120 µg/mL (≈ 136 µM). In addition, the MIC in data set [2] is more than 2 µg/mL; in [4], more than 2 µg/mL; in data set [5], 0.5 µg/mL (≈ 0.566 µM); in data set [6], more than 2 µg/mL; in data set [7], 2 µg/mL (≈ 2.26 µM); in [9], 2 µg/mL (≈ 2.26 µM). The MIC is 1 µg/mL (≈ 1.13 µM) in data set [10] and more than 2 µg/mL in data set [12]. The compound also gave a logP at 1 h in data set [14] of 2.2.

Turning to `CCOC(=O)[C@H](Cc1ccc(O)cc1)NCc1c2c(O)c3c(O)c(C)c4c(c3c1O)C(=O)[C@@](C)(O/C=C/[C@H](OC)[C@@H](C)[C@@H](OC(C)=O)[C@H](C)[C@H](O)[C@H](C)[C@@H](O)[C@@H](C)/C=C/C=C(/C)C(=O)N2)O4`, the MIC in [1] was 0.5 µg/mL (≈ 0.544 µM); in [2], 2 µg/mL (≈ 2.18 µM); in data set [3], more than 2 µg/mL; in data set [4], 0.5 µg/mL (≈ 0.544 µM); in data set [5], 0.063 µg/mL (≈ 0.0686 µM); in data set [7] it was 0.5 µg/mL (≈ 0.544 µM). The MIC in data set [8] was more than 2 µg/mL; in data set [9], 0.5 µg/mL (≈ 0.544 µM); in [10] it was 0.125 µg/mL (≈ 0.136 µM); in [11], 0.5 µg/mL (≈ 0.544 µM). Also, in data set [13], the solubility amounted to 50 µg/mL (≈ 54.4 µM). This compound also came in with a logP at 1 h in data set [14] of 1.92.

As for `COC(=O)[C@H](Cc1ccccc1)NCc1c2c(O)c3c(O)c(C)c4c(c3c1O)C(=O)[C@@](C)(O/C=C/[C@H](OC)[C@@H](C)[C@@H](OC(C)=O)[C@H](C)[C@H](O)[C@H](C)[C@@H](O)[C@@H](C)/C=C/C=C(/C)C(=O)N2)O4`, the MIC in [1] was 0.063 µg/mL (≈ 0.0709 µM); in data set [2], 0.125 µg/mL (≈ 0.141 µM); in data set [3] it was more than 2 µg/mL; in [4], 0.125 µg/mL (≈ 0.141 µM); in data set [5], 0.031 µg/mL (≈ 0.0349 µM); in [7], 0.063 µg/mL (≈ 0.0709 µM). Besides, the MIC in data set [8] was more than 2 µg/mL; in [9], 0.063 µg/mL (≈ 0.0709 µM); in data set [10], 0.031 µg/mL (≈ 0.0349 µM); in [11], 0.063 µg/mL (≈ 0.0709 µM). Further, the concentration in solution in [13] (solubility) came to 70 µg/mL (≈ 78.7 µM). In data set [14], this compound displayed a logP at 1 h of 2.47.

For the compound `COC(=O)[C@H](Cc1cnc[nH]1)NCc1c2c(O)c3c(O)c(C)c4c(c3c1O)C(=O)[C@@](C)(O/C=C/[C@H](OC)[C@@H](C)[C@@H](OC(C)=O)[C@H](C)[C@H](O)[C@H](C)[C@@H](O)[C@@H](C)/C=C/C=C(/C)C(=O)N2)O4`, the solubility in data set [13] was determined as 150 µg/mL (≈ 171 µM). In addition, the MIC in data set [2] came to 1 µg/mL (≈ 1.14 µM); in [4], 0.5 µg/mL (≈ 0.569 µM); in [5], 0.25 µg/mL (≈ 0.284 µM); in [6], 1 µg/mL (≈ 1.14 µM); in [7], 0.25 µg/mL (≈ 0.284 µM); in data set [9] it was 0.25 µg/mL (≈ 0.284 µM). In addition, the figures for the MIC in data set [10] and in data set [12] were 0.125 µg/mL (≈ 0.142 µM) and 1 µg/mL (≈ 1.14 µM), respectively. This compound also displayed a logP at 1 h in [14] of 1.72.
